Laboratory results: publication doi:10.1101/265348v4, “Transcriptional Activation of Elephant Shark Mineralocorticoid Receptor by Corticosteroids, Progesterone and Spironolactone” (biorxiv, 2018)

Tests used:
Test in all cases: cell-based
Conditions in all cases: HEK293; relative to aldosterone = 100%; read-out: % relative to Aldo
[1] = biological target: T1, full-length chicken MR (Gallus gallus, UniProt C1KB84); parameters: transcriptional activation of full-length MR, MMTV-luciferase reporter, concentration-response
T1 construct: gene NR3C2; full-length, expressed in HEK293 cells
T1 sequence (C1KB84 1-986): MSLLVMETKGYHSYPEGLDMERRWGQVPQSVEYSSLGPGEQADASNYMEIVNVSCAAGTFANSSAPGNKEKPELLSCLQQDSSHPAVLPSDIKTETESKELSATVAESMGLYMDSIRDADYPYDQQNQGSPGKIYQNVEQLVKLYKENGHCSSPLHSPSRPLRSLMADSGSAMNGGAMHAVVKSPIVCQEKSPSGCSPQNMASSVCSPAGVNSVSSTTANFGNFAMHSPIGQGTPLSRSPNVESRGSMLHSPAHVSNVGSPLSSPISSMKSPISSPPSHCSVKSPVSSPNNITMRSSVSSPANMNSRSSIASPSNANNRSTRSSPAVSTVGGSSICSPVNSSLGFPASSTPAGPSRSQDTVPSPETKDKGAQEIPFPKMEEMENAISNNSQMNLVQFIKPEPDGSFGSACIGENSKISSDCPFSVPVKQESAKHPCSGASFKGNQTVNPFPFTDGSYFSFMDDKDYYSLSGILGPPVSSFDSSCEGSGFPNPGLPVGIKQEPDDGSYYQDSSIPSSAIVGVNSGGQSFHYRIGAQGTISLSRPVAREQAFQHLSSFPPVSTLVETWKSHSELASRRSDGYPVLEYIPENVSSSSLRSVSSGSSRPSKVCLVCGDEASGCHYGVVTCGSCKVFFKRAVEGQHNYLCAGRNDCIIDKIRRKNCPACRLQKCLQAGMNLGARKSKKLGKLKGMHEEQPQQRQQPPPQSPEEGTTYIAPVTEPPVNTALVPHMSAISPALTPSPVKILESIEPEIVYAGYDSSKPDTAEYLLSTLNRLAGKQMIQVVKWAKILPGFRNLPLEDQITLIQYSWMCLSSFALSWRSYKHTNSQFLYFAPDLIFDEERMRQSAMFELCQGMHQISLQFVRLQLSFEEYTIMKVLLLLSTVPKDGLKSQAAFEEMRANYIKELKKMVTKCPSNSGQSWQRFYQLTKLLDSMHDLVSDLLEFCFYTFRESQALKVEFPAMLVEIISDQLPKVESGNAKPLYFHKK
From the text: (§1) Figure 3. Transcriptional activation of elephant shark MR by 3-ketosteroids. Full length and truncated elephant shark MR were expressed in HEK293 cells with an MMTV-luciferase reporter. A. Full length elephant shark MR. […] (19NP), 17OH-Prog, Spiron or vehicle alone (DMSO). B. Truncated elephant shark MR. […] (19NP), 17OH-Prog or Spiron or vehicle alone (DMSO). Results are expressed as means ± SEM, n=3. Y-axis indicates fold-activation compared to the activity of control vector with vehicle (DMSO) alone as 1.  Figure 4. Concentration-dependent transcriptional activation of full-length and truncated elephant shark MR (shark MR) by 3-ketosteroids. Full length and truncated elephant shark MR (shark MR) were expressed in HEK293 cells with an MMTV-luciferase reporter. Full-length elephant shark MR (shark MR) (A) and (C) and truncated elephant shark MR (shark MR) (B) and (D). (A), (B) Aldo, cortisol, corticosterone, 11deoxycorticosterone or 11-deoxycortisol. (C), (D) Aldo, Prog, [compound left out] [compound left out], 17OH-Prog (17OH-P) or Spiron. […] Y-axis indicates fold-activation compared to the activity of control vector with vehicle (DMSO) alone as 1.  Figure 5. Concentration-dependent transcriptional activation of full-length and truncated chicken and zebrafish MR by progestins and Spironolactone. […] Full-length chicken MR (A) and zebrafish MR (B) and truncated chicken MR (C) and zebrafish MR (D). Y-axis indicates fold-activation compared to the activity of control vector with vehicle (DMSO) alone as 1.

[2] = biological target: T2, full-length elephant shark MR (Callorhinchus milii, UniProt A0A4W3I5J5); parameters: transcriptional activation of full-length MR, MMTV-luciferase reporter, concentration-response
T2 construct: gene nr3c2; full coding region in pcDNA3.1, expressed in HEK293 cells
T2 sequence (A0A4W3I5J5 1-956): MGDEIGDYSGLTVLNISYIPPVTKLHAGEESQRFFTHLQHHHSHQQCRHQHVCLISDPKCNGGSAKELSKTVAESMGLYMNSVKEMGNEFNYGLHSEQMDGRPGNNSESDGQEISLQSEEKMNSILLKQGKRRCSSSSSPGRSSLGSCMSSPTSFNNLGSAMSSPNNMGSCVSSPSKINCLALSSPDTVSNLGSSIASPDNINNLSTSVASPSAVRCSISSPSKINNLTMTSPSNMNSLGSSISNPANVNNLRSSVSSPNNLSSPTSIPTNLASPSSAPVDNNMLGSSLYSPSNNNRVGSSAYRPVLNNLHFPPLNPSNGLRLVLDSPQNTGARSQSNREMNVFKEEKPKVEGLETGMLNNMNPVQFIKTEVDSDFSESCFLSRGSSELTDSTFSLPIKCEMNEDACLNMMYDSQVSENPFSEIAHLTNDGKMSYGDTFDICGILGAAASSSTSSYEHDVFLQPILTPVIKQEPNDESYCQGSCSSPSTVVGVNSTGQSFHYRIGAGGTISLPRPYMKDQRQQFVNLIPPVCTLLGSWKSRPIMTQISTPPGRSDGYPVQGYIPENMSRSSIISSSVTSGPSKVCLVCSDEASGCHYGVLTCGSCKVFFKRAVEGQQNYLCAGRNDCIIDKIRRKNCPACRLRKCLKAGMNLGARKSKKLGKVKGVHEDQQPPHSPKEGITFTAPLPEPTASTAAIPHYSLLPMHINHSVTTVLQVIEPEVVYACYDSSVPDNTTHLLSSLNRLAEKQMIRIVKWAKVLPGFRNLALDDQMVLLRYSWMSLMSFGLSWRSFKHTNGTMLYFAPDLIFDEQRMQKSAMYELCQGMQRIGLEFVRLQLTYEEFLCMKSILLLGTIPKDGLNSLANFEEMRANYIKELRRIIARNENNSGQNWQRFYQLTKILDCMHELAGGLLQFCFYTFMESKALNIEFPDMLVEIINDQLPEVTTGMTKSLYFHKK
From the text: as §1

[3] = biological target: T3, full-length zebrafish MR (Danio rerio, UniProt A6YIH7); parameters: transcriptional activation of full-length MR, MMTV-luciferase reporter, concentration-response
T3 construct: gene nr3c2; full-length, expressed in HEK293 cells
T3 sequence (A6YIH7 1-970): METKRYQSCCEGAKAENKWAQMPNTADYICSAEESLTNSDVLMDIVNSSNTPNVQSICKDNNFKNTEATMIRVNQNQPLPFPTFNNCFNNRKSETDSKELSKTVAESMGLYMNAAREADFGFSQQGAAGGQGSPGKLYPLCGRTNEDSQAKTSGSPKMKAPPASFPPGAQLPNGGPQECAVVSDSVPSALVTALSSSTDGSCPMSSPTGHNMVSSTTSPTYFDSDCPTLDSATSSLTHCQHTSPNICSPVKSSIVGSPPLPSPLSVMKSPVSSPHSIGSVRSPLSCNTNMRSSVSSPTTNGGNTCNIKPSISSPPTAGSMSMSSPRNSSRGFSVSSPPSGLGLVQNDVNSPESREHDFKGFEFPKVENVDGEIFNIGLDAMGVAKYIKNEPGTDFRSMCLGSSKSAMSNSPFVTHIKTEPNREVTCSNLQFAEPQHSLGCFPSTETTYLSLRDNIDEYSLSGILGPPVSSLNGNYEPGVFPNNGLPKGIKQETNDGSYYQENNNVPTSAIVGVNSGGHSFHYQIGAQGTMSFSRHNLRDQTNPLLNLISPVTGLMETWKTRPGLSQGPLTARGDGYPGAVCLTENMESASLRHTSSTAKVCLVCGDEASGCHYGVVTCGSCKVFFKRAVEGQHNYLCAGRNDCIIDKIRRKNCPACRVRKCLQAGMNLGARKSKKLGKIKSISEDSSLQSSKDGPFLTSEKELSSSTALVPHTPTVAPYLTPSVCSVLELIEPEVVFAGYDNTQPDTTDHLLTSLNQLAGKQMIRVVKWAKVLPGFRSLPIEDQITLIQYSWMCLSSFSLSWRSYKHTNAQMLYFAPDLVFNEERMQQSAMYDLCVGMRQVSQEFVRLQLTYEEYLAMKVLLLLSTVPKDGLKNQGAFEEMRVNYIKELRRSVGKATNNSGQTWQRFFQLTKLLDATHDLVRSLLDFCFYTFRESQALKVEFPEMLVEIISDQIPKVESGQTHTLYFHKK
From the text: as §1

[4] = biological target: T4, truncated elephant shark MR (GAL4-DBD-MR-LBD) (Callorhinchus milii, UniProt A0A4W3I5J5); parameters: transcriptional activation of truncated GAL4-DBD-MR-LBD, luciferase reporter, concentration-response
T4 construct: gene nr3c2
T4 sequence (A0A4W3I5J5 658-956 limits assumed): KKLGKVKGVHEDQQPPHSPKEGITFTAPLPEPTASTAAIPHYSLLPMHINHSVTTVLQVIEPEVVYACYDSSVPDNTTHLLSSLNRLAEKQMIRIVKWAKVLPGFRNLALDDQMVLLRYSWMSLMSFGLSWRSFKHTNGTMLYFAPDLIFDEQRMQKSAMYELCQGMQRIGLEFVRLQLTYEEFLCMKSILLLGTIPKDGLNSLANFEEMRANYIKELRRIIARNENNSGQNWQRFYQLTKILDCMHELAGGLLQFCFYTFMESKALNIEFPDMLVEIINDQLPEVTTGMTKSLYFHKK
From the text: (§2) In parallel experiments, truncated elephant shark MR, lacking the A/B domain and containing a GAL4-DBD instead of the MR DBD, retained a strong response to all corticosteroids and to [compound left out] (Figure 3B). […] Concentration-dependent transcriptional activation of full-length and truncated elephant shark MR (shark MR) by 3-ketosteroids. Full length and truncated elephant shark MR (shark MR) were expressed in HEK293 cells with an MMTV-luciferase reporter. Full-length elephant shark MR (shark MR) (A) and (C) and truncated elephant shark MR (shark MR) (B) and (D). (A), (B) Aldo, cortisol, corticosterone, 11deoxycorticosterone or 11-deoxycortisol. (C), (D) Aldo, Prog, [compound left out] [compound left out], 17OH-Prog (17OH-P) or Spiron. […] Y-axis indicates fold-activation compared to the activity of control vector with vehicle (DMSO) alone as 1.  Figure 5. Concentration-dependent transcriptional activation of full-length and truncated chicken and zebrafish MR by progestins and Spironolactone. […] Full-length chicken MR (A) and zebrafish MR (B) and truncated chicken MR (C) and zebrafish MR (D). Y-axis indicates fold-activation compared to the activity of control vector with vehicle (DMSO) alone as 1.

[5] = biological target: T5, truncated zebrafish MR (GAL4-DBD-MR-LBD) (Danio rerio, UniProt A6YIH7); parameters: transcriptional activation of truncated GAL4-DBD-MR-LBD, luciferase reporter, concentration-response
T5 construct: gene nr3c2
T5 sequence (A6YIH7 669-970 limits assumed): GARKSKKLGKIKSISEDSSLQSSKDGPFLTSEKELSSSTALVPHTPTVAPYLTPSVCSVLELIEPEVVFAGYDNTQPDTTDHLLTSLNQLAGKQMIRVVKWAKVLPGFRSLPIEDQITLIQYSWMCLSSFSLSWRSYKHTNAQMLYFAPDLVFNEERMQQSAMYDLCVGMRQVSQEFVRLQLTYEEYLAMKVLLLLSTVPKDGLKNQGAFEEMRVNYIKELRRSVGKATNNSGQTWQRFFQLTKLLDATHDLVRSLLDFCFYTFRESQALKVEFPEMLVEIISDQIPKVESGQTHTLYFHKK
From the text: as §2

Row | Emax [1] [%] | Emax [2] [%] | Emax [3] [%] | Emax [4] [%] | SMILES | Emax [5] [%]
1 | 62 | 43 | 77 | 40 | CC(=O)[C@H]1CC[C@H]2[C@@H]3CCC4=CC(=O)CC[C@]4(C)[C@H]3CC[C@]12C [Prog] | 122
2 | – | 83 | – | 77 | C[C@]12CCC(=O)C=C1CC[C@@H]1[C@@H]2CC[C@@]2(C)[C@H]1CC[C@]2(O)C(=O)CO [S, 11-deoxycortisol] | –
3 | – | 101 | – | 90 | C[C@]12C[C@H](O)[C@H]3[C@@H](CCC4=CC(=O)CC[C@@]43C)[C@@H]1CC[C@@H]2C(=O)CO [B, corticosterone] | –
4 | 30 | 45 | 54 | 53 | CC(=O)S[C@@H]1CC2=CC(=O)CC[C@]2(C)[C@H]2CC[C@@]3(C)[C@@H](CC[C@@]34CCC(=O)O4)[C@H]12 [Spiron] | –
5 | 15 | 25 | 44 | 26 | CC(=O)[C@@]1(O)CC[C@H]2[C@@H]3CCC4=CC(=O)CC[C@]4(C)[C@H]3CC[C@@]21C [17OH-Prog] | –
6 | – | 114 | – | 79 | C[C@]12CCC(=O)C=C1CC[C@@H]1[C@@H]2[C@@H](O)C[C@@]2(C)[C@H]1CC[C@]2(O)C(=O)CO [cortisol] | –

Row | SMILES | Emax [1] [%] | Emax [2] [%] | Emax [3] [%] | Emax [4] [%] | Emax [5] [%]
7 | C[C@]12CC[C@H]3[C@@H](CCC4=CC(=O)CC[C@@]43C)[C@@H]1CC[C@@H]2C(=O)CO [11-deoxycorticosterone] | – | 83 | – | 81 | –
8 | CC(=O)[C@H]1CC[C@H]2[C@@H]3CCC4=CC(=O)CC[C@@H]4[C@H]3CC[C@]12C [19norProg] | 68 | 84 | 83 | 98 | 122
